The text below walks through data of patent US20110059909A1, “METHODS FOR TREATING INFLAMMATORY DISORDERS” (priority 2004, published 2011).

In one data set the test system is PI-3K. Kind of data set: PI-3 kinase activity assay. Type of data set: cell-based, rat. Particulars: exogenous lipid. The protocol: Cells after stimulation in serum-free DMEM/F-12 were lysed with ice-cold lysis buffer containing 1% (vol/vol) NP-40,100 mM NaCl, 20 mM Tris (pH 7.4), 10 mM iodoacetamide, 10 mM NaF, 1 mM sodium orthovanadate, 1 mM […], 1 μg/ml leupeptin, 1 μg/ml antipain, 1 mg/ml aprotinin, and 1 μg/ml pepstatin A. Lysates were incubated at 4° C. for 15 min, followed by centrifugation at 13,000 g for 15 min. The supernatant was pre-cleared with protein G-Sepharose beads (Pharmacia Biotech) for 1 h at 4° C. followed by the addition of 1 μg/ml p85α monoclonal antibody. After 2 h of incubation at 4° C., protein G-Sepharose beads were added and the resulting mixture was further incubated for 1 h at 4° C. The immunoprecipitates were washed twice with lysis buffer, once with phosphate-buffered saline (PBS), once with 0.5 M LiCl and 100 mM Tris (pH 7.6), once in water, and once in kinase buffer (5 mM MgCl2, 0.25 mM EDTA, 20 mM HEPES, pH 7.4). PI-3kinase activity was determined as already described (Ward et al., 1992; Pahan et al., 1999) using a lipid mixture of 100 μl of 0.1 mg/ml PI and 0.1 mg/ml phosphatidylserine dispersed by sonication in 20 mM HEPES (pH 7.0) and 1 mM EDTA. The reaction was initiated by the addition of 20 of [γ-32P] […]

Another data set relates to small GTPase Ras. Kind of data set: Quantification of Ras activation (GST-Raf-1 RBD pull-down) in primary astrocytes. In kind it is cell-based, rat. Particulars: for LacCer-mediated Ras activation: NAC 10 mM or PDTC 100 μM 1 h, LacCer 5 min. The protocol: After stimulation, primary astrocytes in 6-well plates were washed with ice cold PBS and lysed in membrane lysis buffer (MLB; 0.5 ml of 25 mM HEPES, pH 7.5, 150 mM NaCl, 1% Igepal CA-630, 0.25% sodium deoxycholate, 10% glycerol, 10 mM MgCl2, 1 mM EDTA, 25 mM NaF, 1 mM of sodium orthovanadate, and EDTA free Complete™ protease inhibitor cocktail). After centrifugation (5,000×g) at 4° C. for 5 min, supernatant was used for Ras activation assay. One hundred μg of supernatant was used for binding with agarose conjugated Ras-binding domain (RBD) of Raf-1 which was expressed in BL21 (Invitrogen), Escherichia coli strain, transformed by pGEX-2T-GST-RBD in the presence of 0.1 mM of IPTG as described previously (Herrmann et al., 1995). The binding reaction was performed at 4° C. for 30 min in MLB. Following washing with MLB three times, Ras-RBD complex were denatured by adding of 2×SDS sample buffer. Ras protein was identified by western blot analysis with Ras antibodies from Upstate Biotechnology.

A further data set has as its system GFAP. Briefly: GFAP mRNA (real time PCR) and protein (immunoblot) in TNFα-stimulated primary astrocytes. In kind it is cell-based, rat. The protocol:
(§1) For iNOS protein, the cells were washed with cold Tris buffered saline (TBS; 20 mM Trizma base, and 137 mM NaCl, pH 7.5), lysed in 1×SDS sample loading buffer (62.5 mM Trizma base, 2% w/v SDS, 10% glycerol), following sonication and centrifugation at 15,000×g for 5 min, the supernatant was used for the iNOS western immunoblot assay. The protein concentration of samples was determined with the detergent compatible protein assay reagent (Bio-Rad Laboratories, CA) using bovine serum albumin (BSA) as the standard. Sample was boiled for 3 min with 0.1 volumes of 10% β-mercaptoethanol and 0.5% bromophenol blue mix. Fifty μg of total cellular protein was resolved by electrophoresis on 8 or 12% polyacrylamide gels, electro-transferred to polyvinylidene difluoride (PVDF) filter and blocked with Tween 20 containing Tris-buffered saline (TBST; 10 mM Trizma base-pH 7.4, 1% Tween 20, and 150 mM NaCl) with 5% skim milk. After incubation with antiserum against iNOS (BD PharMingen, CA), rat GalT-2 (Abjent Inc., CA), H-Ras (Upstate Biotechnology, CA), GFAP (Santa Cruz Biotech, CA), or phospho-specific ERK1/2 (Cell signaling Tech Inc., MA), or pIκ-B (Signal Transduction), in PVDF buffer for 2 h at room temperature, the filters were washed 3 times with TBST buffer and then incubated with horseradish peroxidase conjugated anti-rabbit or mouse IgG for 1 h. The membranes were detected by autoradiography using ECL-plus (Amersham Pharmacia Biotech) after washing with TBST buffer.
(In general: Quantitative PCR measures a nucleic acid by following its amplification.)

The subject of data set [1] is rat primary astrocytes. Briefly: BrdU incorporation assay, proliferation of primary astrocytes. In kind it is cell-based. Particulars: for Proliferation of astrocytes induced by the substance itself: increasing doses (1, 5 and 10 μM for GSL), 18 h. The protocol: (§2) Primary astrocyte-enriched cultures were prepared from the whole cortex of one day old Sprague-Dawley rats as described earlier (Pahan et al., 1998b). Briefly, the cortex was rapidly dissected in ice-cold calcium/magnesium free Hanks Balanced Salt Solution (HBSS) (Gibco, Grand Island, N.Y.) at pH 7.4 as described previously (Won et al., 2001). The tissue was then minced, incubated in HBSS containing trypsin (2 mg/ml) for 20 min and washed twice in plating medium containing 10% FBS and 10 μg/ml gentamicin, and then disrupted by triturating through a Pasteur pipette following which cells were seeded in 75-cm^2 culture flasks (Falcon, Franklin, N.J.). After incubation at 37° C. in 5% CO2 for 1 day, the medium was completely changed to the culture medium (DMEM containing 5% FBS and 10 μg/ml gentamicin). The cultures received half exchanges with fresh medium twice a week. After 14-15 days the cells were shaken for at least 24 h on an orbital shaker to remove the microglia and then seeded on multi-well tissue culture dishes. The cells were incubated with serum-free DMEM for 24 h prior to the incubation with drugs.
Proliferation of primary astrocytes was assayed by using the Cell proliferation ELISA, BrdU colorimetric assay kit (Roche, Germany) according to manufacturer's protocol. Briefly, cells were seeded in 96 well plates in quadruplicate and following overnight serum starvation were stimulated with mitogenic stimulants. 2 h before termination of proliferation assay, BrdU (10 μM) was added to each well following which cells were fixed and levels of incorporated BrdU were assayed by using a conjugated anti-BrdU enzyme. Colorimetric analysis was done by measuring absorbance at 370 nm using a spectramax MAX 190 (Molecular devices) multi-well plate reading spectrophotometer.
(In general: Uptake of a labelled nucleoside into DNA is a usual measure of proliferation.)

The next data set concerns iNOS. Kind of data set: iNOS mRNA (RT-PCR) and protein (immunoblot) in LPS/IFNγ-stimulated primary astrocytes. As to conditions: primary astrocytes; LPS/IFNγ (1 μg/ml; 10 U/ml); mRNA 6 h, protein 24 h. In kind it is cell-based, rat. The protocol:
as §2, §1
5 μg total RNA was treated with 2 U DNAse I (bovine pancreas, Sigma) for 15 min at room temperature in 18 μl volume containing 1×PCR buffer and 2 mM MgCl2. It was then inactivated by incubation with 2 μl of 25 mM EDTA at 65° C. for 15 min. 2 μl of random primers were added and annealed to the RNA according to the manufacturer's protocol. cDNA was synthesized in a 50 μl reaction containing 5 μg of total RNA and 50-100 U reverse transcriptase by incubating the tubes at 42° C. for 60 min. PCR amplification was conducted in 25 μl of reaction mixture with 1.0 μl of cDNA, […] of each primer and under the manufacturer's Taq polymerase conditions (Takara, Takara Shuzo Co. Ltd, Japan). The sequence of primers used for PCR amplification are as follows; iNOS, (Forward-5′ […] 3′, SEQ ID NO:3; Reverse-5′ […] 3′, SEQ ID NO:4), GalT-2 (Forward-5′ tggtacaagctagaggc 3′, SEQ ID NO:5; Reverse-5′ gcatggcacattgaa C-3′, SEQ ID NO:6), GAPDH (Forward-5′ […] 3′, SEQ ID NO:7; Reverse-5′ cttcacgaagttgtcattgagggca3′, SEQ ID NO:8), TNFα (Forward-5′ […] g-3′, SEQ ID NO:9; Reverse-5′[…]-3′, SEQ ID NO:10) and IL-1β (Forward-5′[…]-3′, SEQ ID NO:11; reverse-5′[…]-3′, SEQ ID NO:12).
Background: A western blot detects proteins with antibodies after separation by electrophoresis.

For data set [2], the system named is rat primary astrocytes. Kind of data set: Assay for NO production (nitrite, Griess reagent) in LPS/IFNγ-stimulated primary astrocytes. In kind it is cell-based. Particulars: for LPS/IFNγ-induced NO production: primary astrocytes, LPS/IFNγ (1 μg/ml; 10 U/ml), NO at 24 h; for Reversal of PDMP-mediated inhibition of LPS/IFNγ-induced NO production: PDMP 50 μM plus exogenous glycosphingolipid 5 and 10 μM, 0.5 h before LPS/IFNγ. The protocol:
as §2
Cells were cultured in 12-well plastic tissue culture plates. Following appropriate treatment, production of NO was determined by an assay of the culture supernatant for nitrite (Green et al., 1982). Briefly, 100 μl of culture supernatant was allowed to react with 100 μl of Griess reagent. The optical density of the assay samples was measured spectrophotometrically at 570 nm. Nitrite concentrations were calculated from a standard curve derived from the reaction of NaNO2 in fresh media.

The conditions of data set [3]: cited from earlier work.
The next data set deals with ERK1/2. Kind of data set: ERK1/2 activation (phospho-ERK1/2 immunoblot) in primary astrocytes. Type of data set: cell-based, rat. As to conditions: pretreated 0.5 h, TNFα 20 min. The protocol:
as §1

Turning to `CCCCCCCCCCCCC/C=C/[C@@H](O)[C@@H](N)COP(=O)(O)O` [S1P, sphingosine-1-phosphate], in the data set with PI-3K, the “Reversal of DMS-mediated inhibition of PI-3K activation” value is listed as “able to reverse”. Besides, in the data set with small GTPase Ras (exogenous lipid), the “Reversal of DMS-mediated inhibition of Ras activation” value is reported as “reverses”. In the data set on GFAP (exogenous lipid), the “Reversal of DMS-mediated inhibition of TNFα-induced GFAP expression” value is reported as “reversed”. Also, in the data set on rat primary astrocytes [1] (PDMP 25 μM plus exogenous lipid), the “Reversal of PDMP-mediated inhibition of TNFα-induced proliferation” value is listed as “could not be reversed”. For the same compound, in the data set on rat primary astrocytes [1] (exogenous lipid), the “Reversal of DMS-mediated inhibition of TNFα-induced proliferation” value is reported as “reversed” and the “Reversal of PD98059-mediated inhibition of TNFα-induced proliferation” value is recorded as “could not be reversed”. In the data set on rat primary astrocytes [1] (BrdU incorporation), the “Proliferation of astrocytes induced by the substance itself” value (from here on “Proliferation of astrocytes induced”) is reported as “induced astrocyte proliferation”.

For `S=C(S)N1CCCC1` [PDTC, pyrrolidine dithiocarbamate], in the data set on iNOS, the “LPS/IFNγ-induced iNOS mRNA and protein levels” value is given as “blocked”. Besides, the “LacCer-mediated Ras activation” value in the data set with small GTPase Ras is on record as “inhibited”. Also, the “LPS/IFNγ-induced NO production” value in the data set with rat primary astrocytes [2] was “blocked”.

`CC(=O)N[C@@H](CS)C(=O)O` [NAC, N-Acetyl cysteine]: the “LPS/IFNγ-induced iNOS mRNA and protein levels” value with iNOS is reported as “blocked”. In the data set with small GTPase Ras, the “LacCer-mediated Ras activation” value is given as “inhibited”. Besides, in the data set on rat primary astrocytes [2], the “LPS/IFNγ-induced NO production” value is on record as “blocked”.

For Glucosylceramide [GluCer], in the data set on rat primary astrocytes [2], the “Reversal of PDMP-mediated inhibition of LPS/IFNγ-induced NO production” value is listed as “did not reverse”. Further, the “Proliferation of astrocytes induced” value in the data set on rat primary astrocytes [1] (BrdU incorporation) is reported as “did not have a similar effect”.

As to `CCCCN1CC(O)C(O)C(O)C1CO` [Miglustat, 1,5-(butylimino)-1,5-dideoxy-D-glucitol], the Solubility in water result in data set [3] is given as “soluble in water”.

For `COc1cccc(-c2cc(=O)c3ccccc3o2)c1N` [PD98059], in the data set with iNOS, the “LPS/IFNγ-induced iNOS mRNA and protein levels” value is listed as “inhibition”. Further, the “TNFα-induced ERK1/2 phosphorylation” value in the data set with ERK1/2 is “inhibited”. For the same compound, the “LPS/IFNγ-induced NO production” value with rat primary astrocytes [2] is on record as “inhibition”. Further, the “TNFα-induced GFAP mRNA and protein expression” value with GFAP (TNFα 1 ng/ml, mRNA 8 h, protein 18 h) is listed as “inhibited”. Also, the TNFα-induced astrocyte proliferation entry with rat primary astrocytes [1] (pretreated 0.5 h (AS: 48 h after transfection), TNFα 1 ng/ml 18 h, BrdU incorporation) is “inhibited”.

galactosylceramide [GalCer]: the “Reversal of PDMP-mediated inhibition of LPS/IFNγ-induced NO production” value with rat primary astrocytes [2] is reported as “did not reverse”. The “Proliferation of astrocytes induced” value in the data set with rat primary astrocytes [1] (BrdU incorporation) was “neither induced proliferation”.
